According to ChEMBL document CHEMBL3885881, “DrugMatrix”:

Species: Rattus norvegicus
Assay: DrugMatrix - Regimen: Daily Repeat
Format: toxicity, organism-based, Sprague-Dawley
Set-up: regimen Daily Repeat, gender Male, age 6-8 weeks
Details: in vivo, po, route oral GAVAGE, vehicle 100 % WATER; for ABSOLUTE BASOPHIL / ABSOLUTE EOSINOPHIL / ABSOLUTE LYMPHOCYTE / ABSOLUTE MONOCYTE / ABSOLUTE SEGMENTED NEUTROPHIL / BASOPHIL / EOSINOPHIL / ERYTHROCYTE COUNT / HEMATOCRIT / HEMOGLOBIN / LEUKOCYTE COUNT / LYMPHOCYTE / MEAN CORPUSCULAR HEMOGLOBIN / MEAN CORPUSCULAR HEMOGLOBIN CONCENTRATION / MEAN CORPUSCULAR VOLUME / MONOCYTE / NEUTROPHIL / NUCLEATED RED BLOOD CELLS / PLATELET COUNT: tissue Blood; for ALANINE AMINOTRANSFERASE / ALKALINE PHOSPHATASE / ASPARTATE AMINOTRANSFERASE / BLOOD UREA NITROGEN / CARBON DIOXIDE / CHLORIDE / CHOLESTEROL / CREATINE PHOSPHOKINASE / CREATININE / GLUCOSE / LACTATE DEHYDROGENASE / LIPASE / PHOSPHORUS / POTASSIUM / SODIUM / TOTAL BILIRUBIN / TOTAL PROTEIN / URIC ACID: tissue Plasma
[1] = 0 mg/kg, 72 h, dose level Control, time 3 day
[2] = 0 mg/kg, 120 h, dose level Control, time 5 day
[3] = […], 72 h, dose 7.5 mg/Kg, dose level Low, time 3 day
[4] = […], 120 h, dose 7.5 mg/Kg, dose level Low, time 5 day

## CNC1=Nc2ccc(Cl)cc2C(c2ccccc2)=[N+]([O-])C1 [CHLORDIAZEPOXIDE]
[1]
  ABSOLUTE BASOPHIL: 0 CELLS/uL
  ABSOLUTE EOSINOPHIL: 40 CELLS/uL
  ABSOLUTE LYMPHOCYTE: 13599.5 CELLS/uL
  ABSOLUTE MONOCYTE: 239.33 CELLS/uL
  ABSOLUTE SEGMENTED NEUTROPHIL: 1021.17 CELLS/uL
  BASOPHIL: 0%
  EOSINOPHIL: 0.33%
  ERYTHROCYTE COUNT: 5.71 x10E6/uL
  HEMATOCRIT: 36.35%
  HEMOGLOBIN: 14.05 G/DL
  LEUKOCYTE COUNT: 14.9 x10E3/uL
  LYMPHOCYTE: 91%
  MEAN CORPUSCULAR HEMOGLOBIN: 24.62 pg
  MEAN CORPUSCULAR HEMOGLOBIN CONCENTRATION: 38.65 G/DL
  MEAN CORPUSCULAR VOLUME: 63.7 fL
  MONOCYTE: 1.5%
  NEUTROPHIL: 7.17%
  NUCLEATED RED BLOOD CELLS: 0.33 /100WBC
  PLATELET COUNT: 1225.5 x10E3/uL
  ALANINE AMINOTRANSFERASE: 48.5 u/L
  ALKALINE PHOSPHATASE: 390.83 u/L
  ASPARTATE AMINOTRANSFERASE: 89 u/L
  BLOOD UREA NITROGEN: 14.83 mg/dL
  CARBON DIOXIDE: 24.83 mmol/L
  CHLORIDE: 100.83 MEQ/L
  CHOLESTEROL: 72.5 mg/dL
  CREATINE PHOSPHOKINASE: 503 u/L
  CREATININE: 0.2 mg/dL
  GLUCOSE: 163 mg/dL
  LACTATE DEHYDROGENASE: 316.83 u/L
  LIPASE: 9.83 u/L
  PHOSPHORUS: 11.57 mg/dL
  POTASSIUM: 6.16 MEQ/L
  SODIUM: 142.62 MEQ/L
  TOTAL BILIRUBIN: 0.2 mg/dL
  TOTAL PROTEIN: 5.8 G/DL
  URIC ACID: 1.65 mg/dL
[2]
  ABSOLUTE BASOPHIL: 0 CELLS/uL
  ABSOLUTE EOSINOPHIL: 21 CELLS/uL
  ABSOLUTE LYMPHOCYTE: 14288.5 CELLS/uL
  ABSOLUTE MONOCYTE: 205.33 CELLS/uL
  ABSOLUTE SEGMENTED NEUTROPHIL: 968.5 CELLS/uL
  BASOPHIL: 0%
  EOSINOPHIL: 0.17%
  ERYTHROCYTE COUNT: 5.83 x10E6/uL
  HEMATOCRIT: 36.53%
  HEMOGLOBIN: 14.4 G/DL
  LEUKOCYTE COUNT: 15.48 x10E3/uL
  LYMPHOCYTE: 92%
  MEAN CORPUSCULAR HEMOGLOBIN: 24.72 pg
  MEAN CORPUSCULAR HEMOGLOBIN CONCENTRATION: 39.43 G/DL
  MEAN CORPUSCULAR VOLUME: 62.68 fL
  MONOCYTE: 1.33%
  NEUTROPHIL: 6.5%
  NUCLEATED RED BLOOD CELLS: 0.17 /100WBC
  PLATELET COUNT: 1280.5 x10E3/uL
  ALANINE AMINOTRANSFERASE: 50 u/L
  ALKALINE PHOSPHATASE: 380.17 u/L
  ASPARTATE AMINOTRANSFERASE: 82.67 u/L
  BLOOD UREA NITROGEN: 15.33 mg/dL
  CARBON DIOXIDE: 27.17 mmol/L
  CHLORIDE: 100.33 MEQ/L
  CHOLESTEROL: 60.67 mg/dL
  CREATINE PHOSPHOKINASE: 441.5 u/L
  CREATININE: 0.16 mg/dL
  GLUCOSE: 146 mg/dL
  LACTATE DEHYDROGENASE: 189.33 u/L
  LIPASE: 9.17 u/L
  PHOSPHORUS: 11.67 mg/dL
  POTASSIUM: 6.86 MEQ/L
  SODIUM: 142.33 MEQ/L
  TOTAL BILIRUBIN: 0.2 mg/dL
  TOTAL PROTEIN: 6.12 G/DL
  URIC ACID: 1.82 mg/dL
[3]
  ABSOLUTE BASOPHIL: 0 CELLS/uL
  ABSOLUTE EOSINOPHIL: 54 CELLS/uL
  ABSOLUTE LYMPHOCYTE: 12748.67 CELLS/uL
  ABSOLUTE MONOCYTE: 258 CELLS/uL
  ABSOLUTE SEGMENTED NEUTROPHIL: 2072.67 CELLS/uL
  BASOPHIL: 0%
  EOSINOPHIL: 0.33%
  ERYTHROCYTE COUNT: 5.45 x10E6/uL
  HEMATOCRIT: 34.1%
  HEMOGLOBIN: 13.23 G/DL
  LEUKOCYTE COUNT: 15.13 x10E3/uL
  LYMPHOCYTE: 84.33%
  MEAN CORPUSCULAR HEMOGLOBIN: 24.3 pg
  MEAN CORPUSCULAR HEMOGLOBIN CONCENTRATION: 38.8 G/DL
  MEAN CORPUSCULAR VOLUME: 62.57 fL
  MONOCYTE: 1.67%
  NEUTROPHIL: 13.67%
  NUCLEATED RED BLOOD CELLS: 0.33 /100WBC
  PLATELET COUNT: 1319 x10E3/uL
  ALANINE AMINOTRANSFERASE: 50.33 u/L
  ALKALINE PHOSPHATASE: 379.67 u/L
  ASPARTATE AMINOTRANSFERASE: 95 u/L
  BLOOD UREA NITROGEN: 15.67 mg/dL
  CARBON DIOXIDE: 26 mmol/L
  CHLORIDE: 101 MEQ/L
  CHOLESTEROL: 60.33 mg/dL
  CREATINE PHOSPHOKINASE: 360.33 u/L
  CREATININE: 0.17 mg/dL
  GLUCOSE: 162.33 mg/dL
  LACTATE DEHYDROGENASE: 326.33 u/L
  LIPASE: 8.67 u/L
  PHOSPHORUS: 12.63 mg/dL
  POTASSIUM: 7.24 MEQ/L
  SODIUM: 142.77 MEQ/L
  TOTAL BILIRUBIN: 0.27 mg/dL
  TOTAL PROTEIN: 5.87 G/DL
  URIC ACID: 2 mg/dL
[4]
  ABSOLUTE BASOPHIL: 0 CELLS/uL
  ABSOLUTE EOSINOPHIL: 0 CELLS/uL
  ABSOLUTE LYMPHOCYTE: 13599 CELLS/uL
  ABSOLUTE MONOCYTE: 187.67 CELLS/uL
  ABSOLUTE SEGMENTED NEUTROPHIL: 813.33 CELLS/uL
  BASOPHIL: 0%
  EOSINOPHIL: 0%
  ERYTHROCYTE COUNT: 5.46 x10E6/uL
  HEMATOCRIT: 34.73%
  HEMOGLOBIN: 13.83 G/DL
  LEUKOCYTE COUNT: 14.6 x10E3/uL
  LYMPHOCYTE: 93%
  MEAN CORPUSCULAR HEMOGLOBIN: 25.37 pg
  MEAN CORPUSCULAR HEMOGLOBIN CONCENTRATION: 39.83 G/DL
  MEAN CORPUSCULAR VOLUME: 63.7 fL
  MONOCYTE: 1.33%
  NEUTROPHIL: 5.67%
  NUCLEATED RED BLOOD CELLS: 0 /100WBC
  PLATELET COUNT: 1349.33 x10E3/uL
  ALKALINE PHOSPHATASE: 303.33 u/L
  ASPARTATE AMINOTRANSFERASE: 68.67 u/L
  BLOOD UREA NITROGEN: 17.67 mg/dL
  CARBON DIOXIDE: 27.33 mmol/L
  CHLORIDE: 101.33 MEQ/L
  CHOLESTEROL: 63.67 mg/dL
  CREATINE PHOSPHOKINASE: 199.33 u/L
  CREATININE: 0.15 mg/dL
  GLUCOSE: 159.33 mg/dL
  LACTATE DEHYDROGENASE: 110 u/L
  LIPASE: 8.67 u/L
  PHOSPHORUS: 11.87 mg/dL
  POTASSIUM: 6.75 MEQ/L
  SODIUM: 144.03 MEQ/L
  TOTAL BILIRUBIN: 0.23 mg/dL
  TOTAL PROTEIN: 5.83 G/DL
  URIC ACID: 1.47 mg/dL
